Measured values as given in ChEMBL document CHEMBL1140258, “Synthesis and structure-activity relationships of biarylcarboxamide bis-aminopyrrolidine urea derived small-molecule antagonists of the melanin-concentrating hormone receptor-1 (MCH-R1)” (Bioorg Med Chem Lett, 2005).

Molecular target: Melanin-concentrating hormone receptor 1 (Homo sapiens, UniProt Q99705)
Experiment: biochemical
Assay type: cell-based, HEK293
Description: Binding affinity towards the human MCH-R1 receptor by displacing [125I]Tyr13]-MCH radioligand in HEK293 cells, Data is average of 3 or more independent measurements

Sequence of Melanin-concentrating hormone receptor 1 (Q99705 whole entry): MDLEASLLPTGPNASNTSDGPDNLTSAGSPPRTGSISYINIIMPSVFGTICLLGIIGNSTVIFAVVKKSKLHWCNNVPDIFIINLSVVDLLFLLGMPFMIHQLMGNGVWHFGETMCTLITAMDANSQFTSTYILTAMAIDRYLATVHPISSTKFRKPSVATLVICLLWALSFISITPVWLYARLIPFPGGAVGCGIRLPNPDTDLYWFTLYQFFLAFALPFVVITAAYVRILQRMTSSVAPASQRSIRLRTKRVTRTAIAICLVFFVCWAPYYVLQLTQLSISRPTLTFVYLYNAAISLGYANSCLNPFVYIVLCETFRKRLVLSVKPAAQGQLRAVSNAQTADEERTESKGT

Compound	Ki [nM]
CCOc1ccc(-c2ccc(C(=O)N(C)[C@H]3CCN(C(=O)N(C)[C@@H]4CCN(C)C4)C3)s2)c(Cl)c1	2
COc1cccc(-c2ccc(C(=O)N(C)[C@H]3CCN(C(=O)N(C)[C@@H]4CCN(C)C4)C3)s2)c1	900
Cc1cc(Cl)ccc1-c1ccc(C(=O)N(C)[C@H]2CCN(C(=O)N(C)[C@@H]3CCN(C)C3)C2)s1	3
COc1ccc(-c2ccc(C(=O)N(C)[C@H]3CCN(C(=O)N(C)[C@@H]4CCN(C)C4)C3)cc2)c(C)c1	16
COc1ccccc1-c1ccc(C(=O)N(C)[C@H]2CCN(C(=O)N(C)[C@@H]3CCN(C)C3)C2)s1	3400
Cc1ccc(-c2ccc(C(=O)N(C)[C@H]3CCN(C(=O)N(C)[C@@H]4CCN(C)C4)C3)s2)c(Cl)c1	1
CN1CC[C@@H](N(C)C(=O)N2CC[C@H](N(C)C(=O)c3ccc(-c4cccc(C(F)(F)F)c4)s3)C2)C1	1800
Cc1cccc(C)c1-c1ccc(C(=O)N(C)[C@H]2CCN(C(=O)N(C)[C@@H]3CCN(C)C3)C2)s1	310
CN1CC[C@@H](N(C)C(=O)N2CC[C@H](N(C)C(=O)c3ccc(-c4ccccc4C(F)(F)F)s3)C2)C1	61
CN1CC[C@@H](N(C)C(=O)N2CC[C@H](N(C)C(=O)c3ccc(-c4cccc(Cl)c4)s3)C2)C1	320
COc1ccc(-c2ccc(C(=O)N(C)[C@H]3CCN(C(=O)N(C)[C@@H]4CCN(C)C4)C3)cc2)cc1	5
Cc1ccc(-c2ccc(C(=O)N(C)[C@H]3CCN(C(=O)N(C)[C@@H]4CCN(C)C4)C3)s2)c(C)c1	3
CN1CC[C@@H](N(C)C(=O)N2CC[C@H](N(C)C(=O)c3ccc(-c4ccc(Cl)cc4)cc3)C2)C1	2
Cc1ccccc1-c1ccc(C(=O)N(C)[C@H]2CCN(C(=O)N(C)[C@@H]3CCN(C)C3)C2)s1	19
CN1CC[C@@H](N(C)C(=O)N2CC[C@H](N(C)C(=O)c3ccc(-c4ccccc4Cl)s3)C2)C1	10
COc1ccc(-c2ccc(C(=O)N(C)[C@H]3CCN(C(=O)N(C)[C@@H]4CCN(C)C4)C3)s2)c(C)c1	3
CN1CC[C@@H](N(C)C(=O)N2CC[C@H](N(C)C(=O)c3ccc(-c4ccc(Cl)cc4Cl)s3)C2)C1	3

Other lines, results leading:

Ki [nM]	Compound
1	CCc1ccc(-c2ccc(C(=O)N(C)[C@H]3CCN(C(=O)N(C)[C@@H]4CCN(C)C4)C3)s2)cc1
37	CN1CC[C@@H](N(C)C(=O)N2CC[C@H](N(C)C(=O)c3ccc(-c4ccc(F)cc4)s3)C2)C1
3300	CC(C)Oc1ccc(-c2ccc(C(=O)N(C)[C@H]3CCN(C(=O)N(C)[C@@H]4CCN(C)C4)C3)s2)cc1
7	CN1CC[C@@H](N(C)C(=O)N2CC[C@H](N(C)C(=O)c3ccc(-c4ccc(N(C)C)cc4)s3)C2)C1
6000	CN1CC[C@@H](N(C)C(=O)N2CC[C@H](N(C)C(=O)c3ccc(-c4ccc(S(C)(=O)=O)cc4)s3)C2)C1
> 10000	CN1CC[C@@H](N(C)C(=O)N2CC[C@H](N(C)C(=O)c3ccc(-c4ccc(O)cc4)s3)C2)C1
4	CN1CC[C@@H](N(C)C(=O)N2CC[C@H](N(C)C(=O)c3ccc(-c4ccc(OC(F)(F)F)cc4)s3)C2)C1
2400	CN1CC[C@@H](N(C)C(=O)N2CC[C@H](N(C)C(=O)c3ccc(-c4ccc(C#N)cc4)s3)C2)C1
63	CCOc1ccc(-c2ccc(C(=O)N(C)[C@H]3CCN(C(=O)N(C)[C@@H]4CCN(C)C4)C3)s2)cc1
2	CN1CC[C@@H](N(C)C(=O)N2CC[C@H](N(C)C(=O)c3ccc(-c4ccc(Cl)cc4)s3)C2)C1
4	COc1ccc(-c2ccc(C(=O)N(C)[C@H]3CCN(C(=O)N(C)[C@@H]4CCN(C)C4)C3)s2)cc1
3	Cc1ccc(-c2ccc(C(=O)N(C)[C@H]3CCN(C(=O)N(C)[C@@H]4CCN(C)C4)C3)s2)cc1
14	CN1CC[C@H](N(C)C(=O)N2CC[C@H](N(C)C(=O)c3ccc(-c4ccc(C(F)(F)F)cc4)s3)C2)C1
5	CC(C)c1ccc(-c2ccc(C(=O)N(C)[C@H]3CCN(C(=O)N(C)[C@@H]4CCN(C)C4)C3)s2)cc1
150	CN1CC[C@@H](N(C)C(=O)N2CC[C@@H](N(C)C(=O)c3ccc(-c4ccc(C(F)(F)F)cc4)s3)C2)C1
2	CN1CC[C@@H](N(C)C(=O)N2CC[C@H](N(C)C(=O)c3ccc(-c4ccc(C(F)(F)F)cc4)s3)C2)C1
190	CN1CC[C@H](N(C)C(=O)N2CC[C@@H](N(C)C(=O)c3ccc(-c4ccc(C(F)(F)F)cc4)s3)C2)C1
